Assay results as given in patent US9381169B2, “Pharmaceutical composition and use of the pharmaceutical composition for the treatment, prophylaxis or prevention of neoplastic diseases in humans and animals” (UNIVERSIDADE BANDEIRANTE DE SÃO PAULO—ACADEMIA PAULISTA …, priority 2009, dated 2016).
Like-named read-outs stand apart in the source and are kept apart here.

What was measured:
[1] = Hematologic evaluation (erythrocytes, leukocytes, platelets), B16F10 melanoma; format: in vivo, mice; conditions: for platelet counts during treatment compared to the control group: B16F10 melanoma mice
Procedure: (§1) The compounds were administered separately.
The blood of animals with B16F10 melanoma tumor was harvested in the 6th and 14th day during treatment with the compound DM-1 and prior to the inoculation of B16F10 cells. In the charts, collections for the day 6 were named 1A, while those relating to day 14 were named 2A. After implantation, tumor blood were collected in the second, sixth and tenth days of treatment (after treatment with DM-1) in all groups of animals, and these collections were named 1B and 2B and 3B, respectively.

B16F10 melanoma [2] = assay: Tumor growth (dorsal tumor area), B16F10 melanoma; format: in vivo; conditions: C57Bl/6J mice
Procedure: (§2) Groups of mice of the C57Bl/6J strain were injected subcutaneously dorsally with 5×10^4 B16F10 melanoma tumor cells under sterile conditions. The animals were observed every 72 hours and tumor growth monitored until the average diameter of […].
Control group—10 animals with B16F10 melanoma tumor, which after the 11th day of tumor implantation, received daily intraperitoneal doses of saline 0.9%;
(§3) Paclitaxel-treated group—10 animals with B16F10 melanoma tumor, which after the 11th day of tumor implantation, received intraperitoneal doses of paclitaxel chemotherapy in […] of treatment;
(§4) After 14 days, the animals received implantation of B16F10 melanoma cells and received no treatment until the end of the experiment.
(§5) Paclitaxel was administered at a concentration of 15 μM/Kg, via intraperitoneal slow infusion, the treatment regimens described in the literature on days 1, 5 and 10, after the 7th day of tumor implantation. The compounds were administered separately.

B16F10 melanoma [3] = assay: Survival rate, B16F10 melanoma; format: in vivo, mice
Procedure: as §2, §3, §4, §5

Ehrlich tumor [4] = assay: Number of renal and splenic metastases, Ehrlich tumor; format: in vivo; conditions: Balb-c mice
Procedure: As an experimental model of mammary adenocarcinoma, we used the Ehrlich tumor in mice of the Balb-c strain, with approximately 2 months of age and weighing between 20 to 25 grams. The maintenance of the tumor in vivo was performed by intraperitoneal administration of 10^7 cells every seven days.
Paclitaxel and etoposide were administered at concentrations of 15 μM/Kg and 3.73 mM/kg, respectively, by intraperitoneal slow infusion in treatment regimens described in the literature on days 1, 5 and 10, after the 7th day of tumor implantation. The compounds were administered separately.

B16F10 melanoma cells = assay: Cell cycle phases and apoptosis of dorsal tumor cells (propidium iodide, FACSCalibur); format: in vivo, mice
Procedure: The cells were then frozen and kept in liquid nitrogen. After incubation with propidium iodide, the analysis was performed on a FACSCalibur cytometer. The results were expressed as mean percentage of cells in different phases of the cell cycle, debris and necrosis, apoptosis (sub-G1), quiescent non-proliferating cells G0/G1, S phase—synthesis of genetic material and G2/M at the beginning of cell division.

Ehrlich tumor [5] = conditions: Balb-c mice, intraperitoneal from day 7 after implant, DM-1 1.6 nM/kg daily, paclitaxel 15 μM/Kg, etoposide 3.73 mM/kg on days 1, 5, 10
Text: (§7) We used 50 mice of the Balb-c strain, females and males, with approximately 25 g, aged approximately 6 to 8 weeks, with diet and water ad libitum, that were divided into 5 groups:
CONTROL GROUP—10 animals implanted with tumor, which after 7 days of application, received daily intraperitoneal doses of saline 0.9%;
Paclitaxel-treated group—10 animals implanted with tumor, which after 7 days of application, received intraperitoneal doses of paclitaxel chemotherapy in the 1st, 5th and 10th days of treatment;
Etoposide-treated group—10 animals implanted with tumor, which after 7 days of application, received intraperitoneal doses of etoposide chemotherapy in the 1st, 5th and 10th days of treatment; […]
Tumor growth in mice was measured by the dimensions on the longitudinal and transverse abdominal cavity, with the aid of a digital caliper. […] The mean area (A), mass (M) and tumor burden (C) were calculated using the following equations, respectively: A=nπ2; L2×T=M/2 (where L is the measured longitudinal and transverse extent of the T waist circumference).

[6] = cited from earlier work
[7] = system: polychromatic erythrocytes; conditions: Wistar rats; for Observed frequencies of polychromatic erythrocytes with micronuclei in 1000 polychromatic erythrocytes: single intraperitoneal dose, cyclophosphamide 190 μM/Kg, DM-1 8 hours before cyclophosphamide
Text: We used animals of the Wistar strain, males and females, with approximately 90 days old and weighing between 250 and 300 grams, maintained with water and food “ad libitum” and in accordance with the rules and procedures regarding the use of laboratory animals. The animals were divided into four groups:
Negative control group—6 animals treated with a single dose of 0.7% saline solution.
Group treated with cyclophosphamide (positive control)—6 animals treated with a single dose of cyclophosphamide chemotherapy.
In all tests was administered 1 mL of the compound of interest intraperitoneally. […] Cyclophosphamide was administered at a concentration of 190 μM/Kg. The compounds were administered separately. At the end of the experiment (24 and 48 hours), animals were euthanized by deep general anesthesia induced by a lethal dose of sodium tiopentabarbital (CRMV, 2008).
This study allowed us to analyze the action of mutagenic compounds under study. Mutagenic compounds when administered in experimental animals cause changes in chromatin that can be identified by the formation of a mass within the nucleus called the micronucleus. The emergence of this mass is quantified and analyzed for their proportion to the capacity of a given drug or not to be mutagenic.
For micronucleus study we used the technique reported by Ribeiro et al. (Environmental Mutagenesis. Ulbra Publisher. Canoas: 1st edition, 2003.) For the staining of slides was used the technique described by Rabello-Gay et al. Apud SILVA, J. C. of; SILVA, S. of C. Evaluation of possible genotoxic effects of Gergilim (Sesamum indicum L., 2003).
In the test, the effect of the chemical agent is observed in anucleate polychromatic erythrocytes (ECPs), which have relatively short life span, so that it contains any micronucleus that was generated as a result of recent chromosomal damage. For the staining of slides was used Giemsa stain diluted in phosphate buffer at pH 6.8, in the ratio 1:10, for a period of 15 minutes. After staining, the slides were washed in distilled water to remove excess dye. To read the slides used an optical microscope and perform counting and analysis of 1000 polychromatic erythrocytes per slide, considering the frequency of micronucleated polychromatic erythrocytes.
The analysis was performed with cells increases 40× and 100× for the visualization of general morphology of the smears negative control group (FIG. 22), the groups treated with the compound DM1 and their polychromatic erythrocytes (FIGS. 23, 24 and 25). 1000 cells were analyzed per animal for the groups treated with DM1, negative control and cyclophosphamide for a total of 40,000 cells. The photodocumentation polychromatic erythrocytes was obtained by digital AVsoft. The group treated with cyclophosphamide was the positive control of the technique (FIG. 27).
The results were subjected to statistical analysis, the ANOVA test of variance followed by Tukey-Kramer multiple comparisons (parametric data) and the significance level of 5%, i.e., the probability P<0.05).

Ehrlich tumor [8] = assay: Macroscopic spleen volume, Ehrlich tumor; conditions: all experimental protocols with DM-1
Procedure: as §7
The spleens of animals from all experimental groups were analyzed for the display of nodes and metastases.

B16F10 melanoma [9] = assay: Internal metastases, B16F10 melanoma; format: in vivo, mice
Procedure: as §2, §3
(§6) Group pre-treated with the DM-1 compound prior to the implant of B16F10 melanoma cells—10 animals were treated with daily doses of the compound DM-1 for 14 days before implantation of tumor cells. After 14 days, the animals received implantation of B16F10 melanoma cells and received no treatment until the end of the experiment.
as §6, with “cells and post-treated with DM-1 compound—10” for “cells—10”, “continued to receive daily” for “received no”, “with” for “until”, “compound DM-1 for another 14 days.” for “end of the experiment.”
as §1

tumor cell lines = conditions: PCT/BR2007/000175 and PI0602640-0; cited from earlier work
[10] = group pre and post treated with DM-1

With `CC(=O)O[C@H]1C(=O)[C@@]2(C)[C@H]([C@H](OC(=O)c3ccccc3)[C@]3(O)C[C@H](OC(=O)[C@H](O)[C@@H](NC(=O)c4ccccc4)c4ccccc4)C(C)=C1C3(C)C)[C@]1(OC(C)=O)CO[C@@H]1C[C@@H]2O` [paclitaxel, reference compound] the “platelet counts during treatment compared to the control group” value [1] was “increase”, the tumor area (B16F10 melanoma [2]; B16F10, treated after tumor implantation, paclitaxel 15 μM/Kg i.p., DM-1 0.83 nM/kg daily) was 9.4 cm^2 and the “increase of survival rate” value (B16F10 melanoma [3]; treated after tumor implantation) was “no significant changes”. The “decrease of metastases in kidney” value (Ehrlich tumor [4]) was 30%, the “decrease of metastases in spleen” value (Ehrlich tumor [4]) was 50% and the “proportion of cells killed by necrosis” value (B16F10 melanoma cells; compared to control and DM-1 groups) was “significant increase”. The “median values of tumor area” value (Ehrlich tumor [5]) was 11.4±1 cm^2.
For `O=S(=O)(O)CCS` [Mesna], the antimutagenic action ([6]; in combination with paclitaxel) is given as “moderate”.
In the case of `O=P1(N(CCCl)CCCl)NCCCO1` (centres unmarked) [Cyclophosphamide, cyclophosphamide], the “cells with micronuclei found in the group” value ([7]; bone marrow smears) is reported as “more than 200 cells”, the “Observed frequencies of polychromatic erythrocytes with micronuclei in 1000 polychromatic erythrocytes” value (“Observed frequencies” for short) ([7]; DM-1 140 μM/Kg, 24 Hours) is reported as 36.5 ± 1.0 and the “Observed frequencies” value ([7]; DM-1 140 μM/Kg, 48 Hours) is reported as 35.5 ± 1.0. The “frequency of micronucleated polychromatic erythrocytes in 1000 cells” value ([7]; positive control group) was 36 /1000.
For `C[C@@H](CN1CC(=O)NC(=O)C1)N1CC(=O)NC(=O)C1` [Dexrazoxane], the “rates of cell damage” value ([6]; as co-adjuvant: dexrazoxane with etoposide, amifostine with cisplatin or paclitaxel) is given as over 45%.
For `COc1cc(C=CC(=O)C=Cc2ccc(O)c(OC)c2)ccc1[O-].[Na+]` [DM-1, sodium 4-[5-(4-hydroxy-3-methoxy-phenyl)-3-oxo-penta-1,4-dienil]-2-methoxy-phenolate], the “immunosuppression in animals with Ehrlich ascites tumor” value (Ehrlich tumor [8]) was “suppressed”, the “Observed frequencies” value ([7]; DM-1 140 μM/Kg, 24 Hours) was 2.4 ± 0.5 and the “Observed frequencies” value ([7]; DM-1 140 μM/Kg, 48 Hours) was 2.2 ± 0.5. For the same molecule, the “micronuclei in bone marrow smears (in words)” value ([7]; DM-1 140 μM/Kg, alone or 8 hours before cyclophosphamide 190 μM/Kg) was “not found significant changes”, the “formation of lung and liver metastases” value (B16F10 melanoma [9]; [10]) was “inhibition” and the “formation of lung and liver metastases” value (B16F10 melanoma [9]; group pre-treated with DM-1) was “inhibition”. For the same molecule, the “platelet counts during treatment compared to the control group” value [1] was “significant reductions”, the “erythrocytes (anemia)” value ([1]; mice treated with DM-1) was “does not induce anemia” and the “dorsal tumor area, average values” (B16F10 melanoma [2]; pre and post treated with DM-1 0.83 nM/kg daily, 14 days before and 14 days after B16F10 implant) was 7.3±1.3 cm^2. For the same molecule, the “dorsal tumor area, average values” (B16F10 melanoma [2]; pretreated with DM-1 0.83 nM/kg daily for 14 days before B16F10 implant, no later treatment) was 6.5±1.7 cm^2, the “increase of survival rate” value (B16F10 melanoma [3]; group pre- and post-treated with DM-1) was 30% and the “increase of survival rate” value (B16F10 melanoma [3]; group pre-treated with DM-1) was 50%. The antiproliferative activity (tumor cell lines) was “significant”, the “percentage of cells in sub-G1 (apoptotic) phase” value (B16F10 melanoma cells; [10]) was “increased significantly” and the “percentage of cells in sub-G1 (apoptotic) phase” value (B16F10 melanoma cells; group pre-treated with DM-1) was “increased significantly”. For the same molecule, the “proportion of quiescent cells in G0/G1 phase” value (B16F10 melanoma cells; protocols of treatment with DM-1) was “reduce”.
For `COc1cc([C@@H]2c3cc4c(cc3[C@@H](O[C@@H]3O[C@@H]5CO[C@@H](C)O[C@H]5[C@H](O)[C@H]3O)[C@H]3COC(=O)[C@H]23)OCO4)cc(OC)c1O` [etoposide], the “decrease of metastases in kidney” value (Ehrlich tumor [4]) was 10%, the “decrease of metastases in spleen” value (Ehrlich tumor [4]) was 30% and the “median values of tumor area” value (Ehrlich tumor [5]) was 8.6±1.0 cm^2.
